Experiments:
[1] = tested on: BMDC/CD4+ T-cell cocultures; test: T cell cytokine release in BMDC/T-cell cocultures; assay type: cell-based, mouse; conditions: BMDCs pretreated with 10 μM, CD4+ T cells, 72 h
Description: To evaluate the adjuvant potential of the two most-promising desmuramylpeptides, 68 and 75, in terms of their effects on DC-mediated activation of CD4^+ and CD8^+ T cells, we used an in vitro antigen-presentation assay with C57BL/6 mouse bone-marrow-derived DCs (BMDCs). Following stimulation with 68 and 75 (1 or 10 μM) in the presence of ovalbumin soluble protein (50 μg/mL), BMDCs were cocultured with carboxyfluorescein succinimidyl ester (CFSE)-labeled naive ovalbumin-specific CD4^+ or CD8^+ T cells, which were isolated from splenocytes of OT II and OT I transgenic mice, respectively. After 3 days of coculture, CD25 (α subunit of IL-2 receptor)[108] expression was determined, along with the CFSE dilution, as markers of T-cell activation and proliferation, respectively. […]
Supernatants from CD4^+ and CD8^+ T cells after 72 h of co-incubation with BMDCs (pretreated with desmuramylpeptides [10 μM] and washed) were collected as described above. The cytokine concentrations were determined with the Cytometric Bead Array Mouse Th1/Th2/Th17 Cytokine Kit (contents: IL-2, IL-4, IL-6, IFN-γ, TNF, IL-17A, IL-10; BD Bioscience) on an Attune NxT flow cytometer (Thermo Fisher Scientific, Waltham, MA, U.S.A.). […] The data were analyzed using the FlowJo (Tree Star, Inc., Ashland, OR, U.S.A.) and Prism (GraphPad, San Diego, CA, U.S.A.) software. […]

NIH/OlaHsd mice = test: In vivo ovalbumin-specific antibody response, second experiment (neutral, anionic, mannosylated liposomes); design: species or system mouse; conditions: for Log10 (anti-OVA IgG1/anti-OVA IgG2a): second in vivo experiment, 0.15 μmol adjuvant, one week after second booster, mean ± SEM of 5 mice
Description: To determine whether the adjuvanticity of 75 can be modulated through changes to the liposomal formulation, a second in vivo experiment was designed in which the adjuvant activities of three different liposomal compositions were compared. Neutral liposomes were prepared from egg phosphatidylcholine and cholesterol.
Multilamellar liposomes were prepared by the modified thin lipid film method as described previously.[130],[131] For the preparation of neutral liposomes, a 7:5 molar ratio of egg-phosphatidylcholine and cholesterol was used. For the preparation of negatively charged liposomes, a 7:5:1 molar ratio of egg-phosphatidylcholine, cholesterol, and dicetylphosphate was used, while a 7:5:0.5 molar ratio of egg-phosphatidylcholine, cholesterol, and Man-PEG-Pam was used in the preparation of mannosylated liposomes. Lipids (total lipid concentration, 4 mg/mL) were dissolved in chloroform/methanol (2:1). A methanol or chloroform/methanol solution of MDP or the desmuramylpeptides was added to the lipid solution for a final concentration of 2 mM and 1.5 mM for the first (Figure 10) and second (Figure 11) experiments, respectively. After rotary evaporation of the solvent, the remaining lipid film was dried in vacuum for 1 h and then dispersed by gentle handshaking in an ovalbumin solution in saline (0.0667 and 0.1 mg/mL for the first and second experiments, respectively). This was then left overnight at 4 °C to swell and stabilize. Liposome size was reduced by sonification. Nonentrapped material was not separated from liposomes, and the complete liposome suspension was used for immunizations.
For the first experiment (Figure 10), sex-matched NIH/OlaHsd mice (five per group) were immunized subcutaneously in the tail base and boosted one time after 21 days. The injection volume in all experimental groups was 0.15 mL per mouse, which corresponds to 10 μg of OVA, […], and 0.30 μmol of MDP and desmuramylpeptides. For the second experiment (Figure 11), sex-matched NIH/OlaHsd mice (five per group) were immunized and boosted two times subcutaneously into the tail base at 21-day intervals. The injection volume in all experimental groups was 0.1 mL per mouse, which corresponds to 10 μg of OVA, 400 μg of lipids, and 0.15 μmol of MDP and 75. The mice were anesthetized with ip application of ketamine/xylazine (25 mg/kg each) prior to blood collection from the axillary plexus on the seventh day after the last booster dose. Individual serum from each animal was decomplemented at 56 °C for 30 min and then stored at −20 °C until tested.
ELISA assays were performed as detailed previously.[46] Briefly, high-binding ELISA plates (Costar, U.S.A.) were coated with a 15 μg/mL solution of ovalbumin in carbonate buffer, pH 9.6, and incubated overnight at room temperature. Nonspecific antibody binding was blocked with 0.5% w/v bovine serum albumin in PBS-T (0.05% (v/v) Tween 20 in phosphate-buffered saline) for 2 h at 37 °C. After washing, five serial dilutions of mice sera and standard preparations were added in duplicate. Plates were incubated overnight at room temperature, washed, and analyzed for ovalbumin-specific IgG levels by incubation with HRP-conjugated goat anti-mouse IgG (2 h at 37 °C) and then, after washing, with 0.6 mg/mL o-phenylenediaminedihydrochloride solution in citrate-phosphate buffer, pH 5.0, with 0.5 μL of 30% H2O2 per milliliter for 30 min at room temperature in the dark. The enzymatic reaction was stopped with 12.5% H2SO4, and absorbance at 492 nm was measured using a microplate reader (Thermo Fisher Scientific, Waltham, MA, U.S.A.). For the determination of ovalbumin-specific IgG1 and IgG2a, the plates were incubated with biotin-conjugated rat anti-mouse IgG1 or IgG2a (2 h at 37 °C) and subsequently with streptavidin–peroxidase for another 2 h at 37 °C. After washing, the substrate solution was added and incubated for 30 min at room temperature in the dark, as described above. […]

| Compound | Levels of IL-2, IL-6, IFN-γ, TNF-α and IL-17A in coculture supernatants [1] | Levels of Th2-associated IL-4 and IL-10 in coculture supernatants [1] | Ovalbumin-specific IgG2a response (in words) (NIH/OlaHsd mice; mannosylated liposomes, 0.15 μmol adjuvant per dose) | Ovalbumin-specific IgG1 response (in words) (NIH/OlaHsd mice; negatively charged liposomes, 0.15 μmol adjuvant per dose) | Ovalbumin-specific IgG levels compared to controls without adjuvant (in words) (NIH/OlaHsd mice; regardless of the liposomal composition) | Log10 (anti-OVA IgG1/anti-OVA IgG2a) (NIH/OlaHsd mice; anionic liposomes) | Log10 (anti-OVA IgG1/anti-OVA IgG2a) (NIH/OlaHsd mice; mannosylated liposomes) | Log10 (anti-OVA IgG1/anti-OVA IgG2a) (NIH/OlaHsd mice; neutral liposomes) |
| --- | --- | --- | --- | --- | --- | --- | --- | --- |
| COc1cc(/C=C/C(=O)NCC(=O)N[C@H](C(=O)N[C@H](CCC(=O)OC2CCCC2)C(=O)OC2CCCC2)C(C)C)ccc1O [Compound 68, Dicyclopentyl ((E)-3-(4-Hydroxy-3-methoxyphenyl)acryloyl)glycyl-L-valyl-D-glutamate] | elevated levels | unaffected levels |  |  |  |  |  |  |
| CCCCCCCCCCCCCCCCCC(=O)Oc1ccc(/C=C/C(=O)NCC(=O)N[C@H](C(=O)N[C@H](CCC(=O)OCC)C(=O)OCC)C(C)C)cc1OC [Compound 75, Diethyl ((E)-3-(3-Methoxy-4-(stearoyloxy)phenyl)acryloyl)glycyl-L-valyl-D-glutamate] |  |  | enhanced the production of IgG2a antibodies | diminished IgG1 activity | increased the levels of IgG antibodies | 1.84 ± 0.20 | 2.15 ± 0.17 | 2.27 ± 0.17 |

Source: article PMC8279416, “Structural Fine-Tuning of Desmuramylpeptide NOD2 Agonists Defines Their In Vivo Adjuvant Activity” (Journal of Medicinal Chemistry, 2021)
